The source of these data is patent US9549978B2, “Amino acid sequences for controlling pathogens” (CENTRO DE INGENIERIA GENETICA Y BIOTECHNOLOGIA, priority 2011, dated 2017).

pEC50, pIC50: −log10 of the molar value.

In experiment [1] the test system is Aeromonas hydrophila. The experiment is described as follows: Resistance to A. hydrophila challenge in tilapia, peptides by intraperitoneal injection. Format: in vivo, tilapia (O. niloticus). As to conditions: LD50 challenge, mortality recorded 7 days, compared to PBS group. How it is done: We proceeded to evaluate the utility of antimicrobial peptides to enhance disease resistance in vivo. In a first test, we used 130 tilapias (O. niloticus) with a body weight of 10 g, which were randomly distributed in 13 experimental groups of ten animals per group. This assay was performed in order to determine the minimum time of treatment required to enhance the survival of fish against challenge with A. hydrophila. Each peptide was administered at a concentration of 1 μg per fish by intraperitoneal injection, for 2, 4, 8 and 15 days. An additional group was placed which PBS was administered as a control. The experimental groups were:
After the time of peptide administration, we performed a challenge test by intraperitoneal injection of the median lethal dose (LD50) of A. hydrophila, and mortality was recorded during 7 days. We calculated the relative percent of survival (RPS) as: RPS (%)=(% mortality controls−% mortality treated)/(% mortality controls)×100
A second test was performed to determine the optimal dose of peptide required to increase the survival of the fish following challenge with A. hydrophila. We used 130 tilapias (O. niloticus), with a body weight of about 10 g, which were randomly distributed in 13 experimental groups of 10 animals each. Each peptide was administered at a concentration of 0.5, 1, 5 and 10 μg per fish for 15 days. The experimental groups were:
After 15 days of peptide administration, we performed a challenge test by is intraperitoneal injection of the LD50 of A. hydrophila, and mortality was recorded during 7 days. RPS was calculated as described above.

Experiment [2] has as its system Pseudomonas aeuroginosa (Gram−). Put plainly: Microdilution antimicrobial activity (MIC/IC50). As to conditions: for pIC50: read-out: IC50 (peptide concentration that produces 50% of bacterial growth inhibition). Format: cell-based. Here is the method:
(§1) The peptides of the invention were also obtained by chemical synthesis using methods known to those skilled in this technical field. The antimicrobial activity of the peptides was determined by the microdilution method. To determine the minimum inhibitory concentration (MIC), each peptide was serially diluted 1:2. Ten microliters of each diluted peptide were incubated with 90 μL of the bacteria or yeast suspension (5×10^5 CFU (colony forming units) per mL) in Mueller Hinton broth (bacteria) or Sabouraund broth (fungi) and incubated for 18 h at 28° C. (for fish pathogens and fungi) or 37° C. (for mammalian pathogens). The MIC is defined as the lowest peptide concentration at which inhibition of bacterial growth occurs. All assays were performed in triplicate, and culture medium (without microorganism) and microorganisms to which no peptide was added were used as controls.

For experiment [3], the system named is Staphylococcus aureus (Gram+). The experiment is described as follows: Microdilution antimicrobial activity (MIC/IC50). As to conditions: for MIC: 18 h, Mueller Hinton broth; for pIC50: read-out: IC50 (peptide concentration that produces 50% of bacterial growth inhibition). It is filed as cell-based. How it is done:
as §1

The subject of experiment [4] is A. hydrophila (Gram−). The experiment is described as follows: Microdilution antimicrobial activity (MIC/IC50). Format: cell-based. How it is done: as §1
The test system of experiment [5] is Vibrio sp. (Gram−). The experiment is described as follows: Microdilution antimicrobial activity (MIC/IC50). It is filed as cell-based. As to conditions: for pIC50: read-out: IC50 (peptide concentration that produces 50% of bacterial growth inhibition). How it is done:
as §1

Experiment [6] concerns Edwardsiella tarda (Gram−). The experiment is described as follows: Microdilution antimicrobial activity (MIC/IC50). Format: cell-based. As to conditions: for pIC50: read-out: IC50 (peptide concentration that produces 50% of bacterial growth inhibition). Here is the method: as §1
The subject of experiment [7] is Bacillus subtilis (Gram+). Put plainly: Microdilution antimicrobial activity (MIC/IC50). Format: cell-based. As to conditions: for pIC50: read-out: IC50 (peptide concentration that produces 50% of bacterial growth inhibition). How it is done: as §1
Experiment [8] deals with E.coli (Gram−). Put plainly: Microdilution antimicrobial activity (MIC/IC50). As to conditions: for pIC50: read-out: IC50 (peptide concentration that produces 50% of bacterial growth inhibition). It is filed as cell-based. How it is done:
as §1

The test system of experiment [9] is Candida albicans (fungus). The experiment is described as follows: Microdilution antimicrobial activity (MIC/IC50). Format: cell-based. The note with it: for MIC: Sabouraund broth, 28° C.; for pIC50: read-out: IC50 (peptide concentration that produces 50% of bacterial growth inhibition). Here is the method:
as §1

Experiment [10] deals with OVA. Put plainly: Cytokine secretion by OVA-stimulated splenocytes of immunized mice, ELISA. It is filed as in vivo, BALB/c mice. How it is done:
FIG. 8. IFN-γ secretion by spleen cells isolated from immunized animals. […] Bars represent the concentration of IFN-γ±standard deviation (n=5). Statistical analysis of the data was performed by ANOVA test and Bonferroni's multiple comparison test (*: p<0.05, ***:p<0.001).
Animals were immunized on days 0 and 14, and blood extractions were performed on days 0, 14 and 21. The serums of animals were used for determination of specific antibody titers (total IgG, IgG1 and IgG2a). At 59 days from the beginning of the experiment was extracted the spleen from the mice to determine the cellular immune response against the antigen OVA. The spleen was extracted under aseptic conditions and the splenocytes were isolated and were seeded 2.5×10^5 cells, at a cell concentration of 2×10^6 cells/mL in 96-well round bottom plate. Cells were stimulated with Concanavalin A (5 μg/ml) or OVA (10 μg/mL) and incubated at 37° C., 5% CO2 for 4 days. Culture supernatants were collected and used for analysis of the levels of interleukin-4 and interferon-γ by ELISA.

The conditions of experiment [11]: read-out: EC50 (LPS binding/neutralization); 0.5 EU/ml LPS, 37° C., 30 min, LAL. How it is done:
Besides the antimicrobial activity and the possibility of increase disease resistance, we studied the ability of antimicrobial peptides of the present invention to neutralize LPS, by the Limulus amebocyte lysate (LAL) test. This assay detects the presence of free LPS unneutralized. Various concentrations of peptides were incubated with 0.5 EU/ml of LPS at 37° C. for 30 min. LPS alone was used as positive control of the assay. Subsequently, were added 100 μL of the mixture to equal volume of LAL reagent. The kinetic of the turbidity was measured using the equipment Tube Reader ATi-321 (Lab Kinetics, UK).

For experiment [12], the system named is MY32. The experiment is described as follows: Co-immunization with MY32 antigen in tilapia, IgM titers by ELISA. It is filed as in vivo, tilapia (O. niloticus). As to conditions: MY32 1 μg/g + peptide 10 μg/animal, adjuvanted in Montanide 888; p<0.05. How it is done: FIG. 9. IgM titers induced by immunization of tilapia (O. niloticus) with MY32 protein co-administered with the antimicrobial peptide Oreochromicin I. Fish (10 fish/group) were immunized by intraperitoneal injection on days 0 and 14. The negative control group was injected with 0.3 mL of PBS. The humoral immune response specific for MY32 was analyzed at 14, 21 and 28 days after the first immunization. The IgM antibody titers specific for MY32 were determined by ELISA. Bars represent the IgM titer±standard error (n=10). Statistical analysis of the data was performed by ANOVA and the Newman-Keuls multiple comparison test (*indicates p<0.05).
To assess the ability of the peptide Oreochromicin I as molecular adjuvant in tilapia was used as vaccine antigen the protein MY32, previously known (Carpio et al. (2011) Vaccine 29: 2810-2820).
Six experimental groups were formed of 10 tilapias (O. niloticus) each with an s average weight of 45 g. The route of administration was intraperitoneal, the immunogen was applied in an injection volume of 0.3 mL. The experimental groups were:
The animals were immunized on days 0 and 14, and blood extractions were performed on days 0, 14, 21 and 28. The serums of the animals were used for the determination of IgM specific antibody titers.

In experiment [13] the test system is OVA. Put plainly: Co-immunization with OVA in mice, second immunization schedule, antibody titers by ELISA. Format: in vivo, BALB/c mice. How it is done: FIG. 7. Titers of total immunoglobulin G (IgG) (A), IgG1 and IgG2a (B) induced in mice by immunization with OVA co-administered with the peptides Oreochromicin I, Oreochromicin II and Oreochromicin III. Male Balb/c mice (8/group) were immunized by intraperitoneal injection on days 0 and 14 with OVA alone (5 μg/animal) or in combination with peptides at the doses of 0.238×10^20 molecules/animal (equivalent to 0.1, 0.12 and 0.14 μg/animal for Oreochromicina I, II and III, respectively) and 2.38×10^20 molecules/animal (equivalent to 1, 1.2 and 1.4 μg/animal for Oreochromicina I, II and III, respectively). The negative control group was injected with 0.1 mL of PBS. The OVA-specific humoral immune response (total IgG) was tested at 14 and 21 days after the first immunization. IgG1 and IgG2a antibody titers were analyzed at 21 days after the first immunization. The OVA-specific antibody titers were determined by ELISA. (A) Total IgG titers. Bars represent the IgG titer standard error (n=8). Statistical analysis was performed using a Kruskal-Wallis test and the Dunn multiple comparison test. Asterisks represent significant differences with the PBS group (* indicates p<0.05, ***indicates p<0.001). (B) IgG1 and IgG2a titers. Bars represent the antibody titer±standard error (n=8). Statistical analysis was performed using Mann Whitney test (*denotes p<0.05).
64 BALB/c male mice were selected, which were 6 weeks old, and were separated into 8 experimental groups of 8 mice each. Administration of the immunogens was is conducted by intraperitoneal injection in a volume of 0.1 mL. The antimicrobial peptides were administered in equimolar amounts (0.238×10^20 molecules and 2.38×10^20 molecules). The experimental groups were:
Animals were immunized on days 0 and 14, and blood extractions were performed on days 0, 14 and 21. The serums of animals were used for determination of specific antibody titers (total IgG, IgG1 and IgG2a). At 59 days from the beginning of the experiment was extracted the spleen from the mice to determine the cellular immune response against the antigen OVA. […]

Take “FIHHIIGGLFSAGKAIHRLIRRRRR [Oreochromicin II]”: the “increase in survival (RPS, relative percent of survival)” value in experiment [1] (1 μg per fish i.p. for 8 days) is recorded as 48%. The MIC result in experiment [2] is on record as “MIC = 6.67 μM”; in experiment [3], “MIC = 5 μM”; in experiment [4], “MIC = 160 μM”; in experiment [5], “MIC = 15 μM”; in experiment [6], “MIC = 20 μM”; in experiment [7] it was “MIC = 1.7 μM”. Further, the MIC entry is on record as “MIC = 5 μM” in experiment [8] and “MIC = 26.7 μM” in experiment [9]. In addition, the pIC50 in [2] is 5.43; in experiment [3], 5.69; in experiment [4] (read-out: IC50 (peptide concentration that produces 50% of bacterial growth inhibition)), 4.52; in experiment [5], 5.60; in [6], 5.68; in experiment [7], 6.23. Further, the pIC50 is 5.64 in experiment [8] and 4.89 in experiment [9]. Further, the “levels of secretion of IFN-γ vs OVA or PBS alone” value in experiment [10] (splenocytes stimulated with OVA, peptide 1.2 μg/animal, p<0.05) is recorded as “significantly higher”. The pEC50 in experiment [11] was 5.85.
As for “FIHHIIGGLFSVGKHIHGLIHGH [Oreochromicin I, also recombinant or chemically synthesized]”, the “increase in survival (RPS, relative percent of survival)” value in experiment [1] (1 μg per fish i.p. for 15 days) was found to be 45%. Also, the MIC entry in experiment [2] is on record as “MIC = 35 μM”; in experiment [3] it was “MIC = 5 μM”; in experiment [4] it was “Did not inhibit”; in [5], “MIC = 80 μM”; in experiment [6] it was “MIC = 160 μM”; in experiment [7], “MIC = 3 μM”. In addition, the MIC entry in [8] was “MIC = 6.7 μM”; in [9], “MIC = 20 μM”. Further, the pIC50 was 4.53 in [2]; 5.55 in [3]; 5.13 in [5]; 4.95 in [6]; 5.86 in [7]; 5.53 in experiment [8]. In addition, the pIC50 in [9] is 4.99. Further, the “specific IgM titer against MY32 vs PBS, MY32 and MY32 + peptide 10 μg/fish” value in [12] was “statistically superior”. In addition, in experiment [11], the pEC50 was 5.91. Moreover, the “titers of specific IgG2a against OVA vs OVA alone” value in experiment [13] (OVA 5 μg + peptide 1 μg/animal, 21 days after first immunization, p<0.05) was “significantly greater”. In addition, the “specific total IgG titer to OVA vs negative control group” value in experiment [13] (OVA 5 μg + peptide 1 μg/animal, p<0.001) is given as “statistically superior”.
As for “IWDAIFHGAKHFLHRLVNPGGKDAVKDVQQKQ [Oreochromicin III, also recombinant or chemically synthesized]”, the “increase in survival (RPS, relative percent of survival)” value in [1] (1 μg per fish i.p. for 15 days) is 45%. Moreover, the MIC result was “Did not inhibit” in experiment [2]; “Did not inhibit” in experiment [3]; “Did not inhibit” in [4]; “MIC = 160 μM” in [6]; “MIC = 106 μM” in [7]; “Did not inhibit” in [8]. In experiment [9], the MIC result was “MIC = 40 μM”. For the same sequence, the pIC50 in experiment [5] is 4.17; in experiment [6] it was 4.43; in [7], 4.72; in [9], 4.85. Further, the “levels of IFN-γ vs OVA or PBS alone” value in [10] (splenocytes stimulated with OVA 10 μg/mL, dose dependent, p<0.001) was “significantly higher”. In addition, the pEC50 in [11] was 5.52. For the same sequence, the “total IgG titers compared to the negative control group” value in experiment [13] (OVA 5 μg + peptide 1.4 μg/animal, p<0.05) was “statistically significant differences”.
